The test system of assay [1] is IL 1-induced release of neutral protease from rabbit articular chondrocytes. Description: inhibition of IL 1-induced release of neutral protease from rabbit articular chondrocytes (azocoll assay). The format is cell-based, rabbit (New Zealand White). Particulars: Oryctolagus cuniculus, Chondrocyte, compound added 10 min before human IL 1, 24 h stimulation, read-out: % Inhibition (I.S.D.). On the procedure: The ability of the compounds of the inventions to inhibit interleukin 1 is measured by the ability of the test compounds to inhibit the IL 1-induced release of neutral protease from rabbit articular chondrocytes.
Male New Zealand White rabbits are anesthetized with 50 mg/kg of ketamine (i.m.) and killed by an intracardiac injection of 3 mls. of Nembutal. The knee joints of both legs are resected and the articular surfaces are exposed. Cartilage slices are obtained using a scalpel and are placed in a tissue culture dish (100 mm diameter) containing 10 mls of Hank's balanced salt solution (HBSS). The chondrocytes within the cartilage slices are then liberated by a series of enzyme digestions. The slices are incubated for 10 min. at 37° C. in 0.05% hyaluronidase (Sigma H-3884), rinsed with HBSS and incubated with 0.2% trypsin (Sigma T-2395) for 10 min. at 37° C. The slices are rinsed again and incubated for 10 mins. at 37° C. with 1.2% collagenase (Sigma C-5138). The slices are then rinsed again with HBSS and resuspended in 10 ml of Ham's F-12 medium containing 10% fetal bovine calf serum (FCS) and 0.2% collagenase and incubated overnight at 37° C. in a 5% CO2 incubator. The next day, the medium containing the digested cartilage fragments and liberated chondrocytes is transferred to a 15 ml centrifuge tube and the cells are collected by centrifugation and washed twice and resuspended in Ham's F-12 medium. The cells are then plated into 24-well tissue culture plates (2×10^5 cells/well) and incubated at 37° C. until confluent (usually 4-6 days).
The confluent chondrocytes are rinsed twice with serum-free Ham's F-12 medium and 1 ml is added to each well. Fifty μl of purified human IL 1 (100 Units/ml; Genzyme Corporation, Boston, MA) is then added to stimulate these cells to secrete neutral protease. To measure drug effects, the cells are treated with test compound 10 min. prior to addition of IL 1. The standard screening dose is 10 μM. Twenty-four hours after IL 1 stimulation, supernatant fluids are collected and assayed for neutral protease activity.
The neutral protease activity of chondrocyte supernatant fluids is determined by their ability to degrade an insoluble protease substrate, azocoll (Sigma). Supernatants are treated for 10 min. at room temperature with 350 μM p-aminophenylmurcuric acetate to activate the latent enzyme. Three hundred μl of supernatant is then mixed with 500 μl of a 20 mg/ml suspension of azocoll and incubated at 37° C. for 18-24 hrs. with gentle rocking. The mixtures are centrifuged and the amount of substrate hyrolyzed is determined by measuring the absorbance of the supernatant at 520 nm.
Drug effects are calculated as the % change in enzyme activity (absorbance)by supernatants from drug-treated chondrocytes relative to enzyme activity of supernatants from vehicle-treated chondrocytes as follows: [formula]

Assay [2] deals with carrageenan paw edema. Description: rat carrageenan paw edema assay. It counts as in vivo, rat (Sprague-Dawley). Particulars: for ED50: Rattus norvegicus, po, 3 h, read-out: Oral ED50 (95% C.L.); for % Change: 1 hour prior to carrageenan, edema at 3 hours. On the procedure:
The compounds of the invention are tested in the rat carrageenan paw edema assay to determined their ability to inhibit the acute inflammatory response. 140-180 gm male Sprague-Dawley rats, in groups of 6 animals, are injected subcutaneously in the right paw with 0.1 ml of 1% carrageenan at zero time. Mercury plethysmographic readings (ml) of the paw are made at zero time and 3 hours later. Test compounds are suspended or dissolved in 0.5% methylcellulose and given perorally 1 hour prior to carrageenan administration. The increase in paw volume (edema in ml.) produced by the carrageenan is measured. Paw edema is calculated (3 hour volume minus zero time volume), and percent inhibit of edema is determined. Unpaired Student's t-test is used to determine statistical significance.

Each structure is given as a SMILES string.

A word on the inhibition: it is the percentage by which the read-out fell short of the control. Regarding `CN1CCc2nc3ccc(Cl)cc3c(SCCCN)c2C1` [Example 21, 10-(3-Aminopropylthio)-8-chloro-1,2,3,4-tetrahydro-2-methylbenzo[b][1,6]naphthyridine], the inhibition at 10 µM in assay [1] stood at 42 ± 26%.

As a reminder, the ED50 is the midpoint of the dose-response relation. For the compound `COc1ccc2c(c1)c(CC(=O)O)c(C)n2C(=O)c1ccc(Cl)cc1` [Indomethacin, reference compound], the ED50 in assay [2] was found to be 3.7 mg/kg.

As for `CN1CCc2nc3cc(Cl)ccc3c(Oc3ccccc3)c2C1` [Example 15, 7-Chloro-1,2,3,4-tetrahydro-2-methyl-10-phenoxybenzo[b][1,6]naphthyridine], the inhibition at 10 µM in assay [1] came to 22 ± 28%.

As to `CCCCN1CCc2nc3cc(Cl)ccc3c(Cl)c2C1` [Example 1, 2-Butyl-7,10-dichloro-1,2,3,4-tetrahydrobenzo[b][1,6]naphthyridine], in assay [1], the inhibition at 10 µM came to 3%.

For the compound `CC(=O)Oc1ccccc1C(=O)O` [Aspirin, reference compound], in assay [2], the ED50 was 145 mg/kg.

For the compound `CN1CCc2nc3ccc(Cl)cc3c(Nc3ccccc3)c2C1` [Example 19, 10-Anilino-8-chloro-1,2,3,4-tetrahydro-2-methylbenzo[b][1,6]naphthyridine], in assay [1], the inhibition at 10 µM is 23 ± 25%.

Take `CN1CCN(c2c3c(nc4cc(Cl)ccc24)CCN(C)C3)CC1` [Example 16, 7-Chloro-1,2,3,4-tetrahydro-2-methyl-10-(4-methyl-1-piperazinyl)benzo[b][1,6]naphthyridine]: the inhibition at 5 µM in assay [1] came to 14 ± 3%.

For `CCCCCCCCN1CCc2nc3cc(Cl)ccc3c(NNc3ccccc3)c2C1` [Example 9, 7-Chloro-1,2,3,4-tetrahydro-2-octyl-10-(2-phenyl-hydrazino)benzo[6][1,6]naphthyridine], in assay [1], the inhibition at 1 µM came to 22 ± 6%.

As for `C=CCCCN1CCc2nc3cc(Cl)ccc3c(NNc3ccccc3)c2C1` [Example 11, 7-Chloro-1,2,3,4-tetrahydro-2-(4-pentenyl)-10-(2-phenyl-hydrazino)benzo[b][1,6]naphthyridine, sesquihydrate], in assay [1], the inhibition at 10 µM was determined as 11 ± 26%.

Turning to `C=CCN1CCc2nc3cc(Cl)ccc3c(NNc3ccccc3)c2C1` [Example 10, 7-Chloro-1,2,3,4-tetrahydro-10-(2-phenylhydrazino)-2-(2-propenyl)benzo[b][1,6]naphthyridine, dihydrate], the inhibition at 10 µM in assay [1] was found to be 62 ± 2%.

Turning to `CN1CCc2nc3ccc(Cl)cc3c(NN)c2C1` [Example 20, (8-Chloro-1,2,3,4-tetrahydro-2-methylbenzo[b][1,6]naphthyridin-10-yl)hydrazine], the inhibition at 5 µM in assay [1] was determined as 18%.

With `CN1CCc2nc3cc(Cl)ccc3c(NNc3ccccc3)c2C1` [Example 7, 1-(7-Chloro-1,2,3,4-tetrahydro-2-methylbenzo[b][1,6]-naphthyridin-10-yl)-2-phenylhydrazine], the inhibition at 1 µM in assay [1] stood at 35 ± 22%. Besides, the inhibition at 10 µM in assay [1] was 78 ± 13%. The “% Change” value is 41% in assay [2] (10 mg/kg perorally), 64% in assay [2] (30 mg/kg perorally), 68% in assay [2] (90 mg/kg perorally) and 59% in assay [2] (100 mg/kg perorally).

For `CN1CCc2nc3cc(Cl)ccc3c(Nc3ccccc3)c2C1` [Example 14, 10-Anilino-7-chloro-1,2,3,4-tetrahydro-2-methylbenzo[b][1,6]naphthyridine], the inhibition at 10 µM in assay [1] was found to be 14 ± 4%.

For `C=CCCCN1CCc2nc3cc(Cl)ccc3c(Cl)c2C1` [Example 4, 7,10-Dichloro-1,2,3,4-tetrahydro-2-(4-pentenyl)benzo[b][1,6]naphthyridine], in assay [1], the inhibition at 10 µM is 12 ± 5%.

On to `CN1CCc2nc3cc(Cl)ccc3c(Cl)c2C1` [Example 5], for which the inhibition at 10 µM in assay [1] is 26 ± 23%.

Consider `CN1CCc2nc3cc(Cl)ccc3c(Sc3ccccc3)c2C1` [Example 17, 7-Chloro-1,2,3,4-tetrahydro-2-methyl-10-thiophenylbenzo[b][1,6]naphthyridine], for which the inhibition at 10 µM in assay [1] turned out to be 44 ± 21%.

`CCCCN1CCc2nc3cc(Cl)ccc3c(NNc3ccccc3)c2C1` [Example 8, 2-Butyl-7-chloro-1,2,3,4-tetrahydro-10-(2-phenyl-hydrazino)benzo[b][1,6]naphthyridine]: in assay [1], the inhibition at 1 µM came to 22 ± 6%.

Consider `COCCNc1c2c(nc3cc(Cl)ccc13)CCN(C)C2` [Example 12, 7-Chloro-1,2,3,4-tetrahydro-N-(2-methoxyethyl)-2-methylbenzo[b]-[1,6]naphthyridin-10-amine, three quarter hydrate], for which the inhibition at 10 µM in assay [1] was 62 ± 28%.

Regarding `CN1CCc2nc3ccc(Cl)cc3c(Oc3ccccc3)c2C1` [Example 18, 8-Chloro-1,2,3,4-tetrahydro-2-methyl-10-phenoxybenzo[b][1,6]naphthyridine], the inhibition at 10 µM in assay [1] is 9 ± 28%.

`CN1CCc2nc3cc(Cl)ccc3c(NCCN3CCOCC3)c2C1` [Example 13, 7-Chloro-1,2,3,4-tetrahydro-2-methyl-N-(2-(4-morpholinyl)-ethyl)benzo[b][1,6]naphthyridin-10-amine]: the inhibition at 10 µM in assay [1] was 4 ± 13%.

In the case of `CCCCCCCCN1CCc2nc3cc(Cl)ccc3c(Cl)c2C1` [Example 2, 7,10-dichloro-1,2,3,4-tetrahydro-2-octylbenzo[b][1,6]naphthyridine], the inhibition at 10 µM in assay [1] came to 51%.

As to `CN1CCc2nc3ccc(Cl)cc3c(Cl)c2C1` [Example 6, 8,10-Dichloro-1,2,3,4-tetrahydro-2-methylbenzo[b][1,6]naphthyridine], the inhibition at 10 µM in assay [1] was 13 ± 6%.
